Test results as given in US8067042B1 (Mutual Pharmaceutical Company, Inc., priority 2007, dated 2011).
Several values for one entry are separate records, joined by “and”; a condition that tells them apart may be missing. Equal entries are not always repeated. Where two headings read alike, the source gives them in different places.

Experiments:
CYP2C9 = CYP2C9 (Homo sapiens, UniProt P11712); assay type: in vitro ADME; conditions: 50 μM megestrol acetate, microsomes
[1] = biological target: T1, Human CYP1A2 + P450 Reductase SUPERSOMES (Homo sapiens, UniProt P05177)
T1 sequence (P05177 2-516 limits assumed): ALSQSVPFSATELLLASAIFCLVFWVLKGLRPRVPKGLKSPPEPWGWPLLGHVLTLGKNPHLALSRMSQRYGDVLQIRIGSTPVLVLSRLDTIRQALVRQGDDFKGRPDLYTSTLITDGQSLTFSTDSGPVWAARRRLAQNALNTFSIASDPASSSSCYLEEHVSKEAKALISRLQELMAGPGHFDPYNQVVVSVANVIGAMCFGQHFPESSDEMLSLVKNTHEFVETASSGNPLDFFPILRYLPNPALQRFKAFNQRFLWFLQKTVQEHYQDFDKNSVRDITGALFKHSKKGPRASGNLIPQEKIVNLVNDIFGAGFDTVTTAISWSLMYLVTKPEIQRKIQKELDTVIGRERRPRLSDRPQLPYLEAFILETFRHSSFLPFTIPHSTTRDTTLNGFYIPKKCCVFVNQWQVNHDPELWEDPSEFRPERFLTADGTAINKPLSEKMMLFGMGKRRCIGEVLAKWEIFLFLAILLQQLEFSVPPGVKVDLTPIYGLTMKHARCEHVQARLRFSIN
Method: (§1) In this study, individual CYP isoforms expressed from human cDNA and P450 reductase cDNA were used (BD SUPERSOMES™ Enzymes, BD Biosciences Discovery Labware, Woburn, Mass.). SUPERSOMES™ are microsomes from baculovirus-infected insect cells containing singly expressed recombinant human CYP enzymes.
(§2) After a 5-minute preincubation, an appropriate amount of the appropriate buffer was added to the reaction mixtures to make the final volume of 0.5 mL. The incubations were continued for 60 minutes.
(§3) All incubation reactions were terminated by adding 0.5 mL methanol, and the samples were transferred to cryovials and stored at −70±10° C. until analysis.

[2] = biological target: T2, Human CYP2C8 + P450 Reductase + Cytochrome b5 SUPERSOMES (Homo sapiens, UniProt P10632)
T2 sequence (P10632 1-490): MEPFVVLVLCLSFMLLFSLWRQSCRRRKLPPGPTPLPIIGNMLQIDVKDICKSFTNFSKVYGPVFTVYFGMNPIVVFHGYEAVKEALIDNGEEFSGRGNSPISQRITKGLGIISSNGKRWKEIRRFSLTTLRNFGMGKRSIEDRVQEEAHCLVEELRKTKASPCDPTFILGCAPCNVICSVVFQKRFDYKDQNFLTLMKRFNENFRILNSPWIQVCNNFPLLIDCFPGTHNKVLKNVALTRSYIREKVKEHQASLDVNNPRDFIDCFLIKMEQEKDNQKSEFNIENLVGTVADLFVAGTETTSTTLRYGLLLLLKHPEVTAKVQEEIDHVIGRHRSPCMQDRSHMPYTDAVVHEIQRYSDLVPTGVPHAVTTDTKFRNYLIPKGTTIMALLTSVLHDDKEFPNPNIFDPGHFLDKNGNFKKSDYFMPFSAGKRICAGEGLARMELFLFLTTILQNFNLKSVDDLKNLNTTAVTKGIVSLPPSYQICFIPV
Method: as §1, §2, §3

CYP3A4 = CYP3A4 (Homo sapiens, UniProt P08684)
Method: The stock solutions were added to incubation mixtures to obtain the final concentrations of 5 and 50 μM, each containing 1% acetonitrile.
After a 5 minute preincubation, nicotinamide adenine dinucleotide phosphate (NADPH) regenerating system (NRS; 1.7 mg/mL β-NADP, 7.8 mg/mL glucose-6-phosphate, and 6 units/mL glucose-6-phosphate dehydrogenase in 2% sodium bicarbonate solution) was added to initiate the reaction. The final incubation volume was 0.5 mL. Incubations were continued for 60 minutes.
All incubations were conducted at 37±1° C. in a shaking water bath. All incubations were carried out in triplicates.
After a 5-minute preincubation, 2% sodium bicarbonate solution was added to the incubation mixtures. The final incubation volume was 0.5 mL. Incubations were continued for 60 minutes.
Incubation reactions, including the matrix controls and metabolic negative controls, were terminated by adding 0.5 mL methanol.
The samples were analyzed on a Supelcosil LC-18 column (3μ, 120 Å, 3.0×100 mm).

CYP2D6 = CYP2D6 (Homo sapiens, UniProt P10635); assay type: in vitro ADME; set-up: purchased BD Biosciences Discovery Labware, Woburn, Mass; host or cells: baculovirus-infected insect cells; conditions: 50 μM megestrol acetate, 20 pmol CYP2D6
CYP2C8 = assay type: in vitro ADME; conditions: 50 μM megestrol acetate, microsomes, quercetin
CYP2B6 = biological target: T3, CYP2B6 (Homo sapiens, UniProt P20813); assay type: in vitro ADME; set-up: purchased BD Biosciences Discovery Labware, Woburn, Mass; host or cells: baculovirus-infected insect cells; conditions: 50 μM megestrol acetate, 20 pmol CYP2B6
T3 sequence (P20813 1-491): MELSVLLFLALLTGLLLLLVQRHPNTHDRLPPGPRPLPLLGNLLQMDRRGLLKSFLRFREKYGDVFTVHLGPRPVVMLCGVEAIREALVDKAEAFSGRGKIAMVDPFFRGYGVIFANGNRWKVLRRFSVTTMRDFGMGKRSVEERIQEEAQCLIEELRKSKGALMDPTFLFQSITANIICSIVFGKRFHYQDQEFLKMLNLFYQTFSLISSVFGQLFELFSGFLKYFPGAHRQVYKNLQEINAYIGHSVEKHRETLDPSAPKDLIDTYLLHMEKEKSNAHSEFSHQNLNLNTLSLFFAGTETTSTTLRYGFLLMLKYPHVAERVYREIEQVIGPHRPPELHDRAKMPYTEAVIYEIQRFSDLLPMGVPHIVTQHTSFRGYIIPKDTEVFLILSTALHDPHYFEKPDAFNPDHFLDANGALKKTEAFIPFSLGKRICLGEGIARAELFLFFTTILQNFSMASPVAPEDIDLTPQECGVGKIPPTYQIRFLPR

[3] = 5 μM, 5 pmol enzyme, listed as megestrol acetate
[4] = 5 μM, 20 pmol enzyme, listed as megestrol acetate
[5] = 50 μM, 5 pmol enzyme, listed as megestrol acetate
[6] = 50 μM, 20 pmol enzyme, listed as megestrol acetate
[7] = human, microsomes, 60 min, pH 7.4

Sequence of CYP3A4 (P08684 whole entry): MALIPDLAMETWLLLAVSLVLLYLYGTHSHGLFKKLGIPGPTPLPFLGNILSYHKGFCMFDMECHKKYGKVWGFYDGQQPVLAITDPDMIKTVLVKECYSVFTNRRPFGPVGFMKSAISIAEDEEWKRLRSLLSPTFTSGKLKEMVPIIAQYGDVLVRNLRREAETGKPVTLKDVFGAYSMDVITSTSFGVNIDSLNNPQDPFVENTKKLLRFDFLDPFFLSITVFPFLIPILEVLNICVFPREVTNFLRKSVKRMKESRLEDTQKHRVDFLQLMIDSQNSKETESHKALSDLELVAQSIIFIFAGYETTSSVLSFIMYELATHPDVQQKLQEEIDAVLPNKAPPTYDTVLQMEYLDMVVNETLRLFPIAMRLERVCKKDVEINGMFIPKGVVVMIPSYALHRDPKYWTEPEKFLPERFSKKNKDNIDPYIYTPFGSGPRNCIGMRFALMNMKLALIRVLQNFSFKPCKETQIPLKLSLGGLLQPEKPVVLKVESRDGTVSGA
Sequence of CYP2D6 (P10635 whole entry): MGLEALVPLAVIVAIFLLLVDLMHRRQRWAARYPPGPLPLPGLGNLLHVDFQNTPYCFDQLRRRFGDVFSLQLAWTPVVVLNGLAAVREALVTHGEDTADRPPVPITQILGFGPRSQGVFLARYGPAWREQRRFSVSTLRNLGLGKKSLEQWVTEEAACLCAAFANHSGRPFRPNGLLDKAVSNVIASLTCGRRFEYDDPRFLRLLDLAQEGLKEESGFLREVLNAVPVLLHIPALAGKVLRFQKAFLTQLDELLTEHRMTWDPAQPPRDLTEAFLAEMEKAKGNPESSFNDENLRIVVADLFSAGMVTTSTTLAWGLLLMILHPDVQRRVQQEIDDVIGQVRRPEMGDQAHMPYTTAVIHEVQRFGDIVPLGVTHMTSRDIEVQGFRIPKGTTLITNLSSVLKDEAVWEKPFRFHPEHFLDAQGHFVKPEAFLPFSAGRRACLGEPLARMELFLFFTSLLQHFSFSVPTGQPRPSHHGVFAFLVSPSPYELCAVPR
Sequence of CYP2C9 (P11712 whole entry): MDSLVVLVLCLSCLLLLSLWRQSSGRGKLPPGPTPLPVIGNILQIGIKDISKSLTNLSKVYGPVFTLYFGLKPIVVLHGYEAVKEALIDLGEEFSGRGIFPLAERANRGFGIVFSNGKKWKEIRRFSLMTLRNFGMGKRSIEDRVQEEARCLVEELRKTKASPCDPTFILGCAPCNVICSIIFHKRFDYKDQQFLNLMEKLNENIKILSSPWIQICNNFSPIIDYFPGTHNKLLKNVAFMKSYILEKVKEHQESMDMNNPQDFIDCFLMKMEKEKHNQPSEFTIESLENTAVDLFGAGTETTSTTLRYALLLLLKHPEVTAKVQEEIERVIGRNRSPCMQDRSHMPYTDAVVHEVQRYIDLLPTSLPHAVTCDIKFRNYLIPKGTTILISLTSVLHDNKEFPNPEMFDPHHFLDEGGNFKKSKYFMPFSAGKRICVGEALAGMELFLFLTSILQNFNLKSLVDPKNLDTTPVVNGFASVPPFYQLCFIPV

CC(=O)O[C@]1(C(C)=O)CC[C@H]2[C@@H]3C=C(C)C4=CC(=O)CC[C@]4(C)[C@H]3CC[C@@]21C [Megestrol Acetate, 17 α-acetyloxy-6-methylpregna-4,6-diene-3,20-dione]
difference in metabolism in the presence or absence of the inhibitor (LC/MS) (CYP2C9): no significant difference in metabolism | Individual Raw Data Observed ([1]; 5 μM, 5 pmol enzyme): 2.044 µM and 2.183 µM and 2.216 µM | Percent of Parent Disappearance Individual ([1]; 5 μM, 5 pmol enzyme): −2.76% and −9.79% and −11.4% | Percent of Parent Disappearance Mean ± SD ([1]; 5 μM, 5 pmol enzyme): −7.99 ± 4.60% | Percent of Parent Disappearance Mean ± SD [1, 3]: no disappearance of the substrate was detected | Individual Raw Data Observed ([1]; 5 μM, 20 pmol enzyme): 2.309 µM and 2.295 µM and 2.254 µM | Percent of Parent Disappearance Individual ([1]; 5 μM, 20 pmol enzyme): 5.51% and 6.07% and 7.78% | Percent of Parent Disappearance Mean ± SD ([1]; 5 μM, 20 pmol enzyme): 6.45 ± 1.18% | Percent of Parent Disappearance Mean ± SD [1, 4]: 6.45±1.18% | Individual Raw Data Observed ([1]; 50 μM, 5 pmol enzyme): 20.03 μM (2×) and 19.46 μM | Percent of Parent Disappearance Individual ([1]; 50 μM, 5 pmol enzyme): −5.05% and −5.02% and −2.05% | Percent of Parent Disappearance Mean ± SD ([1]; 50 μM, 5 pmol enzyme): −4.04 ± 1.72% | Percent of Parent Disappearance Mean ± SD [1, 5]: no disappearance of the substrate was detected | Individual Raw Data Observed ([1]; 50 μM, 20 pmol enzyme): 19.6 µM and 20.86 µM and 20.65 µM | Percent of Parent Disappearance Individual ([1]; 50 μM, 20 pmol enzyme): 11.0% and 5.29% and 6.24% | Percent of Parent Disappearance Mean ± SD ([1]; 50 μM, 20 pmol enzyme): 7.51 ± 3.06% | Percent of Parent Disappearance Mean ± SD [1, 6]: 7.51±3.06% | Individual Raw Data Observed ([2]; 5 μM, 5 pmol enzyme): 2.202 µM and 3.025 µM and 2.609 µM | Percent of Parent Disappearance Mean ± SD ([2]; 5 μM, 5 pmol enzyme): −18.0 ± 18.6% | Percent of Parent Disappearance Mean ± SD [2, 3]: no disappearance of megestrol acetate was detected | Individual Raw Data Observed ([2]; 5 μM, 20 pmol enzyme): 1.94 µM and 1.985 µM and 2.045 µM | Percent of Parent Disappearance Individual ([2]; 5 μM, 20 pmol enzyme): 2.05% and −0.201% and −3.26% | Percent of Parent Disappearance Mean ± SD ([2]; 5 μM, 20 pmol enzyme): −0.468 ± 2.66% | Percent of Parent Disappearance Mean ± SD [2, 4]: no disappearance of megestrol acetate was detected | Individual Raw Data Observed ([2]; 50 μM, 5 pmol enzyme): 21.4 µM and 22.9 µM and 22.7 µM | Percent of Parent Disappearance Individual ([2]; 50 μM, 5 pmol enzyme): 1.01% and −5.95% and −5.01% | Percent of Parent Disappearance Mean ± SD ([2]; 50 μM, 5 pmol enzyme): −3.32 ± 3.78% | Percent of Parent Disappearance Mean ± SD [2, 5]: no disappearance of megestrol acetate was detected | Individual Raw Data Observed ([2]; 50 μM, 20 pmol enzyme): 19.69 µM and 20.64 µM and 20.58 µM | Percent of Parent Disappearance Individual ([2]; 50 μM, 20 pmol enzyme): −0.513% and −5.33% and −5.02% | Percent of Parent Disappearance Mean ± SD ([2]; 50 μM, 20 pmol enzyme): −3.62 ± 2.70% | Percent of Parent Disappearance Mean ± SD [2, 6]: no disappearance of megestrol acetate was detected | percent metabolized in presence vs absence of inhibitor (unpaired two-tailed t-test) (CYP3A4): less than that of the percentage of megestrol acetate metabolized in the absence of the inhibitor | metabolized in pooled human liver microsomes (CYP3A4; [7]): > 20% | percent metabolized in presence vs absence of inhibitor (unpaired two-tailed t-test) (CYP2A6): less than that of the percentage of megestrol acetate metabolized in the absence of the inhibitor | metabolized in pooled human liver microsomes (CYP2A6; [7]): > 20% | metabolites formed (CYP2D6): no metabolites were detected | difference in metabolism in the presence or absence of the inhibitor (LC/MS) (CYP2C8): a significant difference in metabolism | metabolites observed (CYP2B6): 1.23%
